Data: patent US20240390298A1, “CYCLOHEXYL BETA-HYDROXY ALKYL AMINES AND MEDICAL USES THEREOF” (ATROGI AB, priority 2021, published 2024)
Where a name gives a salt, the structure may show the parent alone.

What was measured:
L6-myotubes [1] = experiment: Glucose uptake in differentiated L6-myotubes (3H-2-deoxyglucose), compared to isoproterenol; assay type: cell-based; conditions: agonist 1×10^−5 M, 50 nM 3H-2-deoxyglucose
Summary of the method: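 Serum-starved differentiated L6 myotubes stimulated with agonist at 1×10^−5 M for 1 h 40 min, re-dosed in glucose-free medium for 20 min, then given 50 nM ^3H-2-deoxyglucose for 10 min. Uptake read by β-counting of NaOH lysates; activity expressed relative to isoproterenol.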

L6-myotubes [2] = experiment: Measurement of intracellular cAMP levels in differentiated L6 cells (alpha screen cAMP kit), compared to isoproterenol; assay type: cell-based; conditions: agonist 1×10^−5 M, 15 min; for Emax at 10 µM: Rattus norvegicus, L6, 0.25 h, read-out: Biological example 2: intracellular cAMP levels, activity compared to that of isoproterenol
Summary of the method: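 L6 myoblasts were differentiated into myotubes over 7 days in 2% FBS, then serum-starved overnight. Agonist at 1×10^−5 M final was applied for 15 min in HBSS with 1% BSA, 5 mM HEPES and 1 mM IBMX, pH 7.4. After ethanol extraction and lysis, cAMP was quantified by AlphaScreen, with activity expressed relative to isoproterenol.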

Compound	Biological example 1: glucose uptake, activity compared to that of isoproterenol (L6-myotubes [1])	Emax at 10 µM (L6-myotubes [2])	Biological example 2: intracellular cAMP levels, activity compared to that of isoproterenol (L6-myotubes [2])
CC(C)(C[C@H]1CC[C@@H](N)CC1)NC[C@H](O)c1cncc(F)c1 [Example 175, (R)-2-((1-((1s,4S)-4-Aminocyclohexyl)-2-methylpropan-2-yl)amino)-1-(5-fluoropyridin-3-yl)ethan-1-ol]	+ +	< 25%	
CC(=O)N[C@H]1CC[C@@H](CC(C)(C)NC[C@H](O)c2cncc(F)c2)CC1 [Example 176, N-((1S,4s)-4-(2-(((R)-2-(5-Fluoropyridin-3-yl)-2-hydroxyethyl)amino)-2-methylpropyl)cyclohexyl)acetamide]	+ + +	< 25%	
CC(C)(C[C@H]1CC[C@@H](NS(C)(=O)=O)CC1)NC[C@H](O)c1cncc(F)c1 [Example 177, N-((1S,4s)-4-(2-(((R)-2-(5-Fluoropyridin-3-yl)-2-hydroxyethyl)amino)-2-methylpropyl)cyclohexyl)methanesulfonamide]	+ + +	< 25%	
CC(=O)N(C)[C@H]1CC[C@H](CC(C)(C)NC[C@H](O)c2cccc(F)c2)CC1.Cl [Example 178, N-((1R,4r)-4-(2-(((R)-2-(3-Fluorophenyl)-2-hydroxyethyl)amino)-2-methylpropyl)cyclohexyl)-N-methylacetamide hydrochloride]	+ + +	< 25%	
CN([C@H]1CC[C@H](CC(C)(C)NC[C@H](O)c2cccc(F)c2)CC1)S(C)(=O)=O.Cl [Example 179, N-((1R,4r)-4-(2-(((R)-2-(3-Fluorophenyl)-2-hydroxyethyl)amino)-2-methylpropyl)cyclohexyl)-N-methylmethanesulfonamide hydrochloride]	+ +	< 25%	
CC(=O)N(C)[C@H]1CC[C@@H](CC(C)(C)NC[C@H](O)c2cccc(F)c2)CC1.Cl [Example 180, N-((1S,4s)-4-(2-(((R)-2-(3-Fluorophenyl)-2-hydroxyethyl)amino)-2-methylpropyl)cyclohexyl)-N-methylacetamide hydrochloride]	+ +	< 25%	
CN([C@H]1CC[C@@H](CC(C)(C)NC[C@H](O)c2cccc(F)c2)CC1)S(C)(=O)=O.Cl [Example 181, N-((1S,4s)-4-(2-((®-2-(3-Fluorophenyl)-2-hydroxyethyl)amino)-2-methyl-propyl)cyclohexyl)-N-methylmethanesulfonamide hydrochloride]	+ +	< 25%	
CC(=O)N(C)[C@H]1CC[C@H](CC(C)(C)NC[C@H](O)c2cncc(F)c2)CC1.Cl [Example 182, N-((1R,4r)-4-(2-(((R)-2-(5-Fluoropyridin-3-yl)-2-hydroxyethyl)amino)-2-methylpropyl)cyclohexyl)-N-methylacetamide]	+ + +	25 to 50%	
CN([C@H]1CC[C@H](CC(C)(C)NC[C@H](O)c2cncc(F)c2)CC1)S(C)(=O)=O.Cl [Example 183, N-((1R,4r)-4-(2-(((R)-2-(5-Fluoropyridin-3-yl)-2-hydroxyethyl)amino)-2-methylpropyl)cyclohexyl)-N-methylmethanesulfonamide]	+ + +	< 25%	
CC(=O)N(C)[C@H]1CC[C@@H](CC(C)(C)NC[C@H](O)c2cncc(F)c2)CC1.Cl [Example 184, N-((1S,4s)-4-(2-(((R)-2-(5-Fluoropyridin-3-yl)-2-hydroxyethyl)amino)-2-methylpropyl)cyclohexyl)-N-methylacetamide]	+ + +	< 25%	
CN([C@H]1CC[C@@H](CC(C)(C)NC[C@H](O)c2cncc(F)c2)CC1)S(C)(=O)=O.Cl [Example 185, N-((1S,4s)-4-(2-(((R)-2-(5-Fluoropyridin-3-yl)-2-hydroxyethyl)amino)-2-methylpropyl)cyclohexyl)-N-methylmethanesulfonamide]	+ + +	< 25%	
CN(C)S(=O)(=O)[C@H]1CC[C@H](CC(C)(C)NC[C@H](O)c2cccc(F)c2)CC1.Cl [Example 186, (1R,4r)-4-(2-(((R)-2-(3-Fluorophenyl)-2-hydroxyethyl)amino)-2-methyl-propyl)-N,N-dimethylcyclohexane-1-sulfonamide hydrochloride]	+ + +		+ +
CN(C)S(=O)(=O)[C@H]1CC[C@H](CC(C)(C)NC[C@H](O)c2cncc(F)c2)CC1 [Example 187, (1R,4r)-4-(2-(((R)-2-(5-Fluoropyridin-3-yl)-2-hydroxyethyl)amino)-2-methylpropyl)-N,N-dimethylcyclohexane-1-sulfonamide dihydrochloride]	+ + +	25 to 50%	
CN(C)S(=O)(=O)[C@H]1CC[C@@H](CC(C)(C)NC[C@H](O)c2cccc(F)c2)CC1.Cl [Example 188, (1S,4s)-4-(2-(((R)-2-(3-fluorophenyl)-2-hydroxyethyl)amino)-2-methyl-propyl)-N,N-dimethylcyclohexane-1-sulfonamide hydrochloride]	+ + +	25 to 50%	
CN(C)S(=O)(=O)[C@H]1CC[C@@H](CC(C)(C)NC[C@H](O)c2cncc(F)c2)CC1 [Example 189, (1S,4s)-4-(2-(((R)-2-(5-Fluoropyridin-3-yl)-2-hydroxyethyl)amino)-2-methylpropyl)-N,N-dimethylcyclohexane-1-sulfonamide dihydrochloride]	+ + +		+ +
CNS(=O)(=O)[C@H]1CC[C@H](CC(C)(C)NC[C@H](O)c2cccc(F)c2)CC1 [Example 190, (1R,4r)-4-(2-(((R)-2-(3-Fluorophenyl)-2-hydroxyethyl)amino)-2-methyl-propyl)-N-methylcyclohexane-1-sulfonamide hydrochloride]	+ + +	25 to 50%	
CNS(=O)(=O)[C@H]1CC[C@H](CC(C)(C)NC[C@H](O)c2cncc(F)c2)CC1 [Example 191, (1R,4r)-4-(2-(((R)-2-(5-Fluoropyridin-3-yl)-2-hydroxyethyl)amino)-2-methylpropyl)-N-methylcyclohexane-1-sulfonamide dihydrochloride]	+ +	< 25%	
